Laboratory results taken from ChEMBL document CHEMBL1909046, “DrugMatrix in vitro pharmacology data”.

Key:
[1] = DRUGMATRIX: Potassium Channel [KATP] radioligand binding (ligand: [3H] Glyburide); format: cell membranes, Membrane; conditions: hit-t15; Not Active = under 50% inhibition at 10 µM
[2] = target: T1, Amine oxidase [flavin-containing] A (Homo sapiens, UniProt P21397); experiment: DRUGMATRIX: Monoamine Oxidase MAO-A enzyme inhibition (substrate: Kynuramine); parameters: species or system BTI-TN-5B1-4; conditions: Not Active = under 50% inhibition at 10 µM
T1 sequence (P21397 whole entry): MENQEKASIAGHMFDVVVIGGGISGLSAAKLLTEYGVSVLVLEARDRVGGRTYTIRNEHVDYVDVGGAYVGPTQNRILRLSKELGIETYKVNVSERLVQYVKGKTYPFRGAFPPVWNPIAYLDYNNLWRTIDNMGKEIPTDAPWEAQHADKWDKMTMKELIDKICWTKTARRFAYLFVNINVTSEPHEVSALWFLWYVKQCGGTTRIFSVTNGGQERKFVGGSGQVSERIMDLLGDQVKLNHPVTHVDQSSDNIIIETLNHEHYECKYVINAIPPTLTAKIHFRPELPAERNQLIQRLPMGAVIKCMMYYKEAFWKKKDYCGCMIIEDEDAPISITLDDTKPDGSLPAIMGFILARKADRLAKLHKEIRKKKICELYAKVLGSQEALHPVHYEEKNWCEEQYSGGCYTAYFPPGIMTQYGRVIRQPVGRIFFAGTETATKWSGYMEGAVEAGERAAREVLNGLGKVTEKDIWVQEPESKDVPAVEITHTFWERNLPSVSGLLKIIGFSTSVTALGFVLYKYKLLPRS

Estrogen receptor beta = Estrogen receptor beta (Homo sapiens, UniProt Q92731); conditions: sf9; further: in other assays of this panel Not Active means under 50% inhibition at 10 µM
[3] = DRUGMATRIX: Platelet-Derived Growth Factor (PDGF) radioligand binding (ligand: [125I] PDGF); format: cell-based; conditions: nih3t3; Not Active = under 50% inhibition at 10 µM
Thromboxane-A synthase = target: T2, Thromboxane-A synthase (Homo sapiens, UniProt P24557); experiment: biochemical; format: tissue-based, Platelet;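 further: enzyme inhibition assay with PGH2 supplied as substrate; in other assays of this panel Not Active means under 50% inhibition at 10 µM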
T2 sequence (P24557 whole entry): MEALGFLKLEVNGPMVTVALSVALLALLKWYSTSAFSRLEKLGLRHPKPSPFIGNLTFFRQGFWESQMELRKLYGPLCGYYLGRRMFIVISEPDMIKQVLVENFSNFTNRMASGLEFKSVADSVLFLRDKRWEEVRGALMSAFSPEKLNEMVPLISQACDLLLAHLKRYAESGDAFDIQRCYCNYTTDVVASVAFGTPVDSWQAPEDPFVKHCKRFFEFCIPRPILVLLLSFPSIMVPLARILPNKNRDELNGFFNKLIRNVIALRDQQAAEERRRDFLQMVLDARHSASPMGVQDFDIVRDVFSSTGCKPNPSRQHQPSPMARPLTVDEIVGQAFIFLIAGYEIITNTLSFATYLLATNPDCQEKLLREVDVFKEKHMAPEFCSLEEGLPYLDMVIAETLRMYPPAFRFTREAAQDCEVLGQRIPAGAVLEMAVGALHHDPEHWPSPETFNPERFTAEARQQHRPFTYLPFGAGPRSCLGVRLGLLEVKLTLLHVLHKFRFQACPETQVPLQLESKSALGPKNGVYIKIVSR

[4] = target: T3, Vasoactive intestinal polypeptide receptor 1 (Homo sapiens, UniProt P32241); format: cell membranes, Membrane; conditions: ht-29; further: in other assays of this panel Not Active means under 50% inhibition at 10 µM
T3 sequence (P32241 whole entry): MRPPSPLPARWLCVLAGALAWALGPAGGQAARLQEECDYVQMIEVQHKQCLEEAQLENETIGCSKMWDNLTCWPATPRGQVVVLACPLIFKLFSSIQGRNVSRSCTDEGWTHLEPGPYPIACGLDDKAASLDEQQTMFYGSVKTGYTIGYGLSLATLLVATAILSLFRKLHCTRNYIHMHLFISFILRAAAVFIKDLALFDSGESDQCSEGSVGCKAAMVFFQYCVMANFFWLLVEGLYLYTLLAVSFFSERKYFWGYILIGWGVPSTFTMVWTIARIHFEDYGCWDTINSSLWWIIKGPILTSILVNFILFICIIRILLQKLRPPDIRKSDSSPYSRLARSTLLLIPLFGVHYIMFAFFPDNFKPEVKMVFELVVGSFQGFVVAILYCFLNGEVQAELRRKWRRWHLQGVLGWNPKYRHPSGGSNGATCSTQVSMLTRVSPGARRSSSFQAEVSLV

[5] = target: T4, Alpha-1B adrenergic receptor (Rattus norvegicus, UniProt P15823); experiment: DRUGMATRIX: Alpha-1B adrenergic receptor radioligand binding (ligand: prazosin); format: cell membranes, Wistar, Liver, Membrane; conditions: Not Active = under 50% inhibition at 10 µM
T4 sequence (P15823 whole entry): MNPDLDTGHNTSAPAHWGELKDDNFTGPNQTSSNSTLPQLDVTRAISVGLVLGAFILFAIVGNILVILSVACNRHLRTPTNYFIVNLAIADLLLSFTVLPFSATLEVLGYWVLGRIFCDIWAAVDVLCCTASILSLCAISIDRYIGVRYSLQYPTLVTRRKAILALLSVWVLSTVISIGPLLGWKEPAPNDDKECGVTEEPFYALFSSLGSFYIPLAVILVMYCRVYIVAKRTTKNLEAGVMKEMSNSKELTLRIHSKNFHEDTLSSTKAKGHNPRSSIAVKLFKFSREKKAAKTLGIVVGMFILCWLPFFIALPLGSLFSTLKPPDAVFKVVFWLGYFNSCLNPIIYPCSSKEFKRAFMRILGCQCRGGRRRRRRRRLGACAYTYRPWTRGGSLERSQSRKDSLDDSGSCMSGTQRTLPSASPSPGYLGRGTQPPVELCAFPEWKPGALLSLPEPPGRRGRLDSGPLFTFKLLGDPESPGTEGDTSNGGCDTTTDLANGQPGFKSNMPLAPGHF

Sequence of Estrogen receptor beta (Q92731 whole entry): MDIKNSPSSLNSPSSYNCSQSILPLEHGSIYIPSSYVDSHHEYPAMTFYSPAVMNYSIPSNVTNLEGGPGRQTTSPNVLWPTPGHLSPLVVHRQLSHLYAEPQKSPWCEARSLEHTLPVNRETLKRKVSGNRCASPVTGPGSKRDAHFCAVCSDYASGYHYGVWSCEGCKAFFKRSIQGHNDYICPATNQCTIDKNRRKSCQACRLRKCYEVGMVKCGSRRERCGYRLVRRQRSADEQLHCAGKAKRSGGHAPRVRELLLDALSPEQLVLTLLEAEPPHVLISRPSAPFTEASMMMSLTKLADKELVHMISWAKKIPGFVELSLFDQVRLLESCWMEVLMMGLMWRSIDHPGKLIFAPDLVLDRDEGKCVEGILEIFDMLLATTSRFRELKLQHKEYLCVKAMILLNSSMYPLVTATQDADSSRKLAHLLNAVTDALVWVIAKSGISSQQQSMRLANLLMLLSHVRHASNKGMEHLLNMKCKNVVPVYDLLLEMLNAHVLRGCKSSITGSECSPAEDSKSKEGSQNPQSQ

Row | SMILES | IC50 [1] | Ki [1] | IC50 ([2]; bti-tn-5b1-4) | IC50 (Estrogen receptor beta) | IC50 [3] | Ki [3] | IC50 (Thromboxane-A synthase; platelet) | IC50 [4] | IC50 [5] | IC50 (Thromboxane-A synthase; read-out: IC50) [nM] | IC50 ([5]; read-out: IC50) [nM] | Ki ([5]; read-out: Ki) [nM] | IC50 ([2]; read-out: IC50) [nM]
1 | Cc1c(C)c2c(c(C)c1O)CCC(C)(CN1CCN(c3cc(N4CCCC4)nc(N4CCCC4)n3)CC1)O2 (stereo not given) | Not Active | Not Active | Not Active | Not Active | Not Active | Not Active | Not Active | Not Active | Not Active | – | – | – | –
2 | COc1ccc(CCN(C)CCCC(C#N)(c2ccc(OC)c(OC)c2)C(C)C)cc1OC (stereo not given) | Not Active | Not Active | Not Active | Not Active | Not Active | Not Active | Not Active | Not Active | – | – | – | – | –
3 | CC(C)Cc1ccc([C@@H](C)C(=O)O)cc1 [(R)-IBUPROPHEN] | Not Active | Not Active | Not Active | Not Active | Not Active | Not Active | Not Active | Not Active | Not Active | – | – | – | –
4 | CN(C)CCOC(c1ccccc1)c1ccccc1 [DIPHENHYDRAMINE] | – | – | Not Active | Not Active | – | – | Not Active | Not Active | – | – | – | – | –
5 | Clc1ccc(COC(Cn2ccnc2)c2ccc(Cl)cc2Cl)cc1 (stereo not given) [ECONAZOLE] | – | – | Not Active | Not Active | – | – | – | Not Active | – | 29 | – | – | –
6 | CCN(CC)CCOc1ccc(/C(=C(/Cl)c2ccccc2)c2ccccc2)cc1 [ENCLOMIPHENE] | – | – | Not Active | Not Active | – | – | Not Active | Not Active | – | – | – | – | –
7 | Fc1ccc(C(c2ccc(F)cc2)N2CCN(C/C=C/c3ccccc3)CC2)cc1 [FLUNARIZINE] | – | – | Not Active | Not Active | – | – | Not Active | Not Active | – | – | – | – | –
8 | CNCCC(Oc1ccc(C(F)(F)F)cc1)c1ccccc1 (stereo not given) [FLUOXETINE] | – | – | Not Active | Not Active | – | – | Not Active | Not Active | – | – | – | – | –
9 | Cc1ccc(NC(=O)c2ccc(CN3CCN(C)CC3)cc2)cc1Nc1nccc(-c2cccnc2)n1 [IMATINIB] | – | – | Not Active | Not Active | – | – | – | Not Active | – | 198 | – | – | –
10 | CC(C)Oc1ccc2c(=O)c(-c3ccccc3)coc2c1 [IPRIFLAVONE] | Not Active | Not Active | Not Active | – | Not Active | Not Active | Not Active | Not Active | Not Active | – | – | – | –
11 | CC(C)NCC(O)c1ccc(O)c(O)c1 (stereo not given) [ISOPROTERENOL] | Not Active | Not Active | Not Active | Not Active | Not Active | Not Active | Not Active | Not Active | Not Active | – | – | – | –
12 | CNC1(c2ccccc2Cl)CCCCC1=O (stereo not given) [KETAMINE] | Not Active | Not Active | Not Active | Not Active | Not Active | Not Active | Not Active | Not Active | Not Active | – | – | – | –
13 | CO[C@@H]1[C@@H](OC)[C@H](C)[C@@](O)(CC(=O)O)O[C@H]1[C@H](C)[C@H]1O[C@@]2(CC[C@@](C)([C@H]3CC[C@@](C)([C@@H]4O[C@@H]([C@H]5O[C@](C)(O)[C@H](C)C[C@@H]5C)C[C@@H]4O[C@@H]4C[C@H](OC)[C@@H](OC)[C@H](C)O4)O3)O2)C[C@H](O)[C@H]1C [MADURAMICIN ACID] | Not Active | Not Active | Not Active | – | Not Active | Not Active | Not Active | Not Active | – | – | – | – | –
14 | C[C@H]1C[C@@H]2[C@H]([C@@H](O)C[C@@]3(C)[C@H]2CC[C@]3(O)C(=O)CO)[C@@]2(C)C=CC(=O)C=C12 [METHYLPREDNISOLONE] | Not Active | Not Active | Not Active | – | Not Active | Not Active | Not Active | Not Active | Not Active | – | – | – | –
15 | Cc1cccc(C)c1OCC(C)N (stereo not given) [MEXILETINE] | Not Active | Not Active | Not Active | – | Not Active | Not Active | Not Active | Not Active | Not Active | – | – | – | –
16 | O=C(Oc1ccccc1C(=O)O)c1ccccc1O [SALSALATE] | Not Active | Not Active | Not Active | – | Not Active | Not Active | Not Active | Not Active | Not Active | – | – | – | –
17 | O=C(O)c1cn(-c2ccc(F)cc2)c2cc(N3CCNCC3)c(F)cc2c1=O [SARAFLOXACIN] | Not Active | Not Active | Not Active | – | Not Active | Not Active | Not Active | Not Active | Not Active | – | – | – | –
18 | CN[C@H]1CC[C@@H](c2ccc(Cl)c(Cl)c2)c2ccccc21 [SERTRALINE] | – | – | Not Active | Not Active | – | – | Not Active | Not Active | – | – | – | – | –
19 | O.O.O.O.O.O.[Cl-].[Cl-].[Sr+2] [STRONTIUM CHLORIDE HEXAHYDRATE] | – | – | Not Active | – | Not Active | Not Active | Not Active | Not Active | Not Active | – | – | – | –
20 | O=C1C(CC[S+]([O-])c2ccccc2)C(=O)N(c2ccccc2)N1c1ccccc1 (stereo not given) [SULFINPYRAZONE] | Not Active | Not Active | Not Active | – | Not Active | Not Active | Not Active | Not Active | Not Active | – | – | – | –
21 | COc1cc2nc(N3CCN(C(=O)C4CCCO4)CC3)nc(N)c2cc1OC (stereo not given) [TERAZOSIN] | – | – | Not Active | Not Active | Not Active | Not Active | Not Active | Not Active | – | – | 6.03 | 3.33 | –
22 | CCCCNc1ccc(C(=O)OCCN(C)C)cc1 [TETRACAINE] | Not Active | Not Active | – | – | Not Active | Not Active | Not Active | Not Active | Not Active | – | – | – | 317
23 | Cn1c(=O)c2nc[nH]c2n(C)c1=O.O [THEOPHYLLINE] | Not Active | Not Active | Not Active | – | Not Active | Not Active | Not Active | Not Active | Not Active | – | – | – | –
24 | CS(=O)(=O)c1ccc([C@@H](O)[C@@H](CO)NC(=O)C(Cl)Cl)cc1 [THIAMPHENICOL] | Not Active | Not Active | Not Active | – | Not Active | Not Active | Not Active | Not Active | Not Active | – | – | – | –
